The record followed here is patent publication US8853219B2, “Compounds and compositions for cognition-enhancement, methods of making, and methods of treating” (NeuroSolis, Inc., priority 2010, dated 2014).

Where two headings read alike, the source gives them in different places.

Series [1] deals with Long Evans Hooded rats. As to the kind of experiment: In vivo measurement of salivation. The arrangement: species or system rat. The protocol:
Suitable doses of test compounds or drug substances were administered using standard techniques to Long Evans Hooded rats weighing 225 to 350 grams, or CD-1 mice weighing 30 to 50 grams, which had been anesthetized using 2-3.5%% of isoflurane in oxygen. The animals were placed slightly head-down on an inclined, heated ramp. Rectal temperature was monitored using a thermocouple and the temperature of the heating pad was adjusted manually to maintain normal body temperature. Saliva was collected from the mouth by absorption onto pre-weighed slips of filter paper. The filter paper was changed periodically and the amount of saliva was measured by weighing the filter paper slips.

Series [2] has as its target T1, human muscarinic M1 receptors (Homo sapiens, UniProt P11229).
T1 construct: host or cells: A9L cells
T1 sequence (P11229 1-460): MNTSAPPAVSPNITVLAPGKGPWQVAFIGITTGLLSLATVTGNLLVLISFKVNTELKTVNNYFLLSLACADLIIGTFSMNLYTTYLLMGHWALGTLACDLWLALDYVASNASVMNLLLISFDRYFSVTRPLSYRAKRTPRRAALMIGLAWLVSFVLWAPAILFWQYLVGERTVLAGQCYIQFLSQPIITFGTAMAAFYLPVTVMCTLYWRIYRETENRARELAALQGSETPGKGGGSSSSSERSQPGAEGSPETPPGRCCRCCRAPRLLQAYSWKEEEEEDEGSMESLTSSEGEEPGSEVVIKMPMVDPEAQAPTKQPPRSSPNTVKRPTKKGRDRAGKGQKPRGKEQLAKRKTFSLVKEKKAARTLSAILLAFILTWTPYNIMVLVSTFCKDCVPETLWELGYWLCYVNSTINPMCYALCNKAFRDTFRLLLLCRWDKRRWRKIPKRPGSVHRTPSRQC
The series is described as follows: Stimulation of inositol phosphate production in A9L cells, human M1 (IPOne TR-FRET). It is filed as cell-based. The protocol:
(§1) Muscarinic M1 and M3 agonist activity was evaluated by measuring the stimulation of inositol phosphate (IP) production in the presence of lithium chloride from A9L cells transfected with expression plasmids containing human muscarinic M1 and M3 receptors, respectively. The cell lines were a gift from Professor W Messer, and the methods were as described in Tejada F R et al. J. Med. Chem. 2006; 49: 7518-31 except that the assay was scaled down to run in 384 well plates, and IP was measured in the cell lysates using the non-isotopic IPOne TR-FRET assay (CIS-BIO, Inc).
(§2) Cells were grown to 90% confluence in 384 well hi-base plates (Greiner Bio-One), compounds were added at suitable concentrations in growth medium containing 10 mM LiCL, buffered with an extra 10 mM HEPES (pH7.4), and incubated for 60 minutes at 37° C. Cells were lysed and assayed for IP following the manufacturer's instructions.
(§3) The value for a full agonist is 100%, while partial agonists give values below 100%.

The subject of series [3] is A-beta. The series is described as follows: A-beta in hippocampal microdialysate of Tg-2576 transgenic mice. It is filed as in vivo, mouse. The following applies: single dose. The text has this: These mice have high concentrations of A-beta in their brain tissue, thought to be the cause of neuron death in Alzheimer's disease, and accumulate amyloid plaques, recapitulating one of the hallmark pathological features of Alzheimer's disease.

The target of series [4] is T2, human muscarinic M3 receptors (Homo sapiens, UniProt P20309).
T2 construct: host or cells: A9L cells
The series is described as follows: Stimulation of inositol phosphate production in A9L cells, human M3 (IPOne TR-FRET). It is filed as cell-based. As for the experimental part:
as §1, §2, §3

For series [5], the system named is pooled male human liver microsomes. As to the kind of experiment: Metabolism by human liver microsomes. It is filed as in vitro ADME. The following applies: 6 hours incubation. The protocol: Compounds were incubated with pooled male human liver microsomes (BD Biosciences, #452172) and an NADP-regenerating system in a phosphate buffer (pH 7.4) for a total of 6 hours. Aliquots were removed every 2 hours, and 1% formic acid was added to halt the reaction. Samples were centrifuged, filtered through 0.2 micron spinfilter and the amount of each compound in the supernatants was quantitated using LC/MS/MS.
(Liver microsomes are vesicles of endoplasmic reticulum, rich in cytochrome P450 enzymes.)

In series [6] the test system is CD-I mice. As to the kind of experiment: Apomorphine induced climbing model of psychosis. Format: in vivo, mouse. The protocol:
As described in Costall et. al. European Journal of Pharmacology 1978, 50, 39. individual CD-I mice, 1-2 months old, were placed in a cylindrical wire mesh cage (13.2 cm high×13.2 cm diameter) constructed of steel wire 1 mm thick spaced at 1.2 cm^2. Cylinders were placed in a standard OptiMICE mouse cage (29×32×9×29 cm wide and 14 cm high) with adequate wood chip bedding provided. Observations of climbing (defined as 3 or more paws off the ground) were carried out every 5 minutes at a duration of 1 minute for 30 minutes. Animals were injected subcutaneously under isoflurane anesthesia with test compounds, reference compounds, which included clozapine, haloperidol, olanzapine and xanomeline, or PBS as a control. This was followed 5 minutes later by 2 mg/kg apomorphine hydrochloride. All drugs were dissolved in PBS or a mixture of (by volume) 96% PBS and 4% hydroxypropyl-beta-cyclodextrin, and dosed at a rate of 5 ml per kilogram of body weight. Following injections, animals were replaced in the mesh cages and observed for climbing (defined as 3 or more paws off the ground) every 5 minutes for a duration of 1 minute for 60 minutes after dosing.

Series [7] is described as follows: PAMPA test. For orientation: The PAMPA barrier holds no transporters, so it reflects passive diffusion.
The subject of series [8] is inositol phosphate signaling pathway. The series is described as follows: In vivo measurement of tissue inositol phosphate signaling pathway activation (hippocampus, salivary gland). The following applies: rat, Compound 3 1 mg/kg. The protocol:
Experimental compounds or drug substances were administered using standard techniques to Long Evans Hooded rats weighing 225 to 350 grams, and which had been pretreated with a subcutaneous injection of lithium chloride at a suitable dose between 3 and 10 mmoles per kg. At suitable times the animals were briefly anesthetized using 5% isoflurane and euthanized by decapitation. The brains and submaxillary salivary glands were rapidly dissected out, and the hippocampuses were dissected from the brains. The dissected tissues were homogenized in a suitable volume of ice-cold phosphate-buffered saline containing 10 mM lithium chloride, pH7.4, using a tissue homogenizer, and used immediately or frozen in aliquots at −80 degC for future use. The concentration of inositol-1-phosphate was determined in the homogenates using the IPOne TR-FRET assay (CisBio cat no 621PAPEB), following the manufacturer's instruction

Series [9] relates to rats. The series is described as follows: Salivation after transdermal iontophoretic co-delivery of agonist and antagonist from one patch. The following applies: anesthetized rats, device with 1 mg Compound 3 plus 0.01 mg antagonist. Format: in vivo, rat. As for the experimental part: Experimental compounds and drug substances were delivered transdermally in rats using iontophoresis as follows. The fur was shaved from the backs of Long Evans Hooded rats weighing 225 to 325 grams, using electric clippers. Experimental compounds and drug substances were formulated at suitable concentrations an aqueous mixture of the following composition:
The polyvinyl alcohol/water was heated to 95 degC until it became clear, then the other constituents were added and mixed well. The mixture was introduced into suitable molds containing a disc-shaped cavity 2.2 cm diameter and 2.2 mm deep. Molds may be fabricated using two glass sheets separated by a silicone rubber sheet with suitable sized cavities and filling ports cut-outs. The molds were subject to 3 freeze-thaw cycles at −80 degC and 20 degC until a firm cryogel was obtained. The gels were separated from the molds and trimmed into a circular shape. The gel was placed in a silicone rubber casing with one face in contact with a circular silver foil anodic electrode (22 mm dia/250 microns thick), and the assembly was placed on the shaved skin of the rat such that the other face was in contact with the skin on one side of the back of the rat. The rubber casing formed a seal over and around the gel/electrode assembly. […] This was placed on the other side of the shaved back of the rat, the edges of the gel discs being about 20 mm apart at their nearest point. A DC voltage was applied across the two patches from a constant-current DC power supply and the voltage adjusted to obtain the desired current, such that the skin of the animal completed the electrical circuit.
The devices were placed on shaved backs of anesthetized rats and salivation was measured.
The animals were placed slightly head-down on an inclined, heated ramp. Rectal temperature was monitored using a thermocouple and the temperature of the heating pad was adjusted manually to maintain normal body temperature. Saliva was collected from the mouth by absorption onto pre-weighed slips of filter paper. The filter paper was changed periodically and the amount of saliva was measured by weighing the filter paper slips.

Where [10] appears, read: potency class relative to carbachol.

T2 sequence (P20309 whole entry): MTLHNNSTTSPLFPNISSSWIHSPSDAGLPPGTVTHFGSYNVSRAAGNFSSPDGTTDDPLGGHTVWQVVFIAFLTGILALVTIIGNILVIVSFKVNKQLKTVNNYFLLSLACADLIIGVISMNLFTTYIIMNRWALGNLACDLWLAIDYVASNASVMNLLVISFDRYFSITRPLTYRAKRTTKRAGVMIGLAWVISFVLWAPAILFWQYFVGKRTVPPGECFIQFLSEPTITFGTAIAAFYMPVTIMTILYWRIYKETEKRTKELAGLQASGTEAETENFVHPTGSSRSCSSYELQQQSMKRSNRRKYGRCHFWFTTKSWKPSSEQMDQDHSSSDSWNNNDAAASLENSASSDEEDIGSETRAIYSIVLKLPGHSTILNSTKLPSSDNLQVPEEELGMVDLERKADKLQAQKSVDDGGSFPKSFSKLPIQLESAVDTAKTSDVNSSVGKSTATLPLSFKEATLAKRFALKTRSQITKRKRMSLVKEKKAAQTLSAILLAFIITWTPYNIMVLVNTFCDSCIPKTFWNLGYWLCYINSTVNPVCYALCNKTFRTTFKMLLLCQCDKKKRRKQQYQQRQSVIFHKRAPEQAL

In the case of `Cc1noc(C2CCCNC2)n1` (racemic) [compound 3, 3-Methyl-5-(piperidin-3-yl)-1,2,4-oxadiazole], the PAMPA units came out at 2.56. Also, the Salivation result in [1] (anesthetized normal rats, dose-dependent between about 0.1 mg/kg and 1 mg/kg) is on record as “causes salivation”. Further, in [2], the “huM1/A9L ED50 relative to CCh” value was “+ (key: ++: potency > 10x CCh; +: potency 2-10x CCh; +/−: potency 0.5-2x CCh; −: potency < 0.5-0.1x CCh; −−: potency < 0.1x CCh; inactive: potency too low to determine)”. In [3], the “Reduction of concentration of A-beta 1-40 in hippocampal microdialysate” value was “approximately 40%” and the “Reduction of concentration of A-beta 1-42 in hippocampal microdialysate” value is reported as “approximately 40%”. Moreover, in series [4], the “huM3/A9L ED50 relative to CCh” value was “+/− (key: ++: potency > 10x CCh; +: potency 2-10x CCh; +/−: potency 0.5-2x CCh; −: potency < 0.5-0.1x CCh; −−: potency < 0.1x CCh; inactive: potency too low to determine)”. Also, in series [5], the “Metabolism in human liver microsomes” value is listed as “metabolized significantly less in human liver microsomes than in rat liver microsomes”. For the same compound, in series [6] (Cmpd 3 + APO + N-Methyl Scopolamine 0.3 mg/kg), the “Climbing Mean (secs)” value is listed as “unaffected by N-methylscopolamine”. Besides, the “Climbing Mean (secs)” value in series [6] (Cmpd 3 + APO + scopolamine 0.3 mg/kg) was “inhibited by scopolamine”. Moreover, the “Potency in inhibiting climbing relative to reference antipsychotic” value in series [6] (sc) was “equipotent to haloperidol”.
`Clc1cccc(Cl)c1N=C1NCCN1` [Clonidine]: the PAMPA units stood at 7.95.
As to `Cc1noc(C2(F)CCCNC2)n1` (centres unmarked) [Compound 35, 5-(3-fluoropiperidin-3-yl)-3-methyl-1,2,4-oxadiazole], the “huM1/A9L ED50 relative to CCh” value in [2] (setting [10]) is “− (potency < 0.5-0.1x CCh)”. The compound further yielded a PAMPA units in series [7] of 16.3. For the same compound, the “huM3/A9L ED50 relative to CCh” value in series [4] (setting [10]) is given as “−− (potency < 0.1x CCh)”.
`Cc1noc(C2CN3CCC2CC3)n1` (centres unmarked) [Compound 37, 3-methyl-5-(quinuclidin-3-yl)-1,2,4-oxadiazole, reference compound]: in series [2], the “huM1/A9L ED50 relative to CCh” value was “++ (key: ++: potency > 10x CCh; +: potency 2-10x CCh; +/−: potency 0.5-2x CCh; −: potency < 0.5-0.1x CCh; −−: potency < 0.1x CCh; inactive: potency too low to determine)”. Besides, the “Potency and efficacy at M1 muscarinic receptors” value in series [2] (Table 12) is given as “highly potent”. For the same compound, the “Selectivity for M1 versus M3 receptors” value in series [2] (huM1/A9L versus huM3/A9L) was “essentially non-selective between M1 and M3 receptors”. Besides, the PAMPA units in series [7] worked out at 3.02. For the same compound, the “huM3/A9L ED50 relative to CCh” value in [4] is “++ (key: ++: potency > 10x CCh; +: potency 2-10x CCh; +/−: potency 0.5-2x CCh; −: potency < 0.5-0.1x CCh; −−: potency < 0.1x CCh; inactive: potency too low to determine)”.
With `C[N+]1(C)[C@@H]2C[C@@H](OC(=O)[C@H](CO)c3ccccc3)C[C@H]1[C@@H]1O[C@@H]12` [NMS, N-methylscopolamine], in [1] (Compound 3 0.3 mg/kg), the “Decrease in salivation caused by Compound 3” value was “dose-dependent decrease in salivation”. Further, the “Block of increase in salivary gland inositol phosphate caused by Compound 3” value in series [8] (antagonist 0.003 mg/kg) is recorded as “some breakthrough activation”; in series [8] (antagonist 0.03 mg/kg to 0.01 mg/kg) it was “nearly as effective as 0.1 mg/kg”; in [8] (antagonist 0.1 mg/kg), “completely block”. Besides, the “Inhibition of increase in hippocampal inositol phosphate caused by Compound 3” value in series [8] (antagonist 0.1 mg/kg) is recorded as “does not inhibit”. The “Reduction of salivation caused by transdermal iontophoretic delivery of Compound 3” value in [9] is “greatly reduced”.
Compound `CNC(=C[N+](=O)[O-])NCCSCc1ccc(CN(C)C)o1` [Ranitidine] gave a PAMPA units of 0.26.
